Residues, ends and D or L forms follow the SMILES beside them. *: point of attachment. Cbz = O=C(OCc1ccccc1)*; CH2F = FC*
System: B.1.617.2 Delta Variant of SARS-CoV-2
Assay: microbe, parasite or virus in culture
Format: cell-based

## CC(C)C[C@H](NC(=O)OCc1ccccc1)C(=O)N[C@@H](CC(C)C)C(=O)N[C@@H](Cc1ccc(O)cc1)C(=O)CF [Calpain Inhibitor IV] (Cbz-Leu-Leu-Tyr-CH2F)
  Conc. at Max. % Inhibition: 0.45 µM
  Max. Inhibition: 105.43%
read-out: IC 50 against B.1.617.2 Delta Variant Infection-Induced CPE
  IC50: 124 nM

Reference: patent US20240285552A1 (priority 2020, published 2024)
